{"source": "patent US10913738B2", "about": "(BRISTOL-MYERS SQUIBB COMPANY, priority 2017, dated 2021)", "key": {"[1]": {"test_system": "MLKL phosphorylation in HT29-L23 human colorectal adenocarcinoma cells", "experiment": "MLKL Phosphorylation High-Content Assay", "format": "cell-based", "settings": "Homo sapiens", "protocol": "MLKL Phosphorylation High-Content Assay\nFollowing six hours incubation at 37° C. […] MLKL phosporylation was detected using anti-MLKL (phospho S358) antibody (Abcam #ab187091) (1:1000 dilution in Blocking Buffer [PBS supplemented with 0.1% BSA]) with overnight incubation at 4° C. […] Following another three cycles of washes in PBS, the microplates were sealed, and cellular images were acquired in the Cellomics ArrayScan VTI high-content imager equipped with an X1 camera. […] The image sets were analyzed using the Compartmental Analysis Bioapplication software (Cellomics). The level of MLKL phosphorylation was quantified as MEAN CircRingAvgIntenRatio. […] The data were fitted using the 4-parameter logistic equation to calculate the IC50 and Ymax values."}, "[2]": {"target": "T1, His-GST-TVMV-hRIPK1(1-324) (Homo sapiens, UniProt Q13546)", "T1 construct": "The coding region of human RIPK1(1-324) flanked by NdeI site at 5′ end; made in house; host or cells: Spodoptera frugiperda (Sf9) insect cells, baculovirus", "T1 sequence (Q13546 1-324)": "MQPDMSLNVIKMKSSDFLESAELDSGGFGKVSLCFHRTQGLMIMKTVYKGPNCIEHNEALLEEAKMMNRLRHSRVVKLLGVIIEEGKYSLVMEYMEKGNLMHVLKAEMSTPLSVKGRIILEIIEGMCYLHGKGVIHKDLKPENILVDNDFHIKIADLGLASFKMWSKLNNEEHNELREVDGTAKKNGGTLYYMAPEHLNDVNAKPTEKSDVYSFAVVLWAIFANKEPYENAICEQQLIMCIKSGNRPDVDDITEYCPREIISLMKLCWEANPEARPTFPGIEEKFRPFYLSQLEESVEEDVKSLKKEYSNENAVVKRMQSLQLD", "experiment": "RIPK1 HTRF Binding Assay", "protocol": "The plate was incubated at rt for 1 h.\nCloning and Baculovirus Expression of RIPK1 Construct\nBaculovirus was generated for the construct using the Bac-to-Bac baculovirus expression system (Invitrogen) according to the manufacturer's protocol. Briefly, recombinant bacmid was isolated from transformed DH10Bac E. coli competent cells (Invitrogen) and used to transfect Spodoptera frugiperda (Sf9) insect cells (Invitrogen). Baculovirus was harvested 72 hours post transfection and a virus stock was prepared by infecting fresh Sf9 cells at a 1/1000 (v/v) ratio for 66 hours.\nThe production was carried out either at a 10 L scale in a 22 L cellbag (GE Healthcare Bioscience, Pittsburgh, Pa.) or at a 20 L scale in a 50 L cellbag using WAVE-Bioreactor System 20/50 (GE Healthcare Bioscience). The infected cells were harvested by centrifugation at 2000 rpm for 20 min at 4° C. in a SORVALL® RC12BP centrifuge. The cell pellets was stored at −70° C. before protein was purified.\nRIPK1 containing cell paste was resuspended in 50 mM Tris pH 7.5, 150 mM NaCl, 10 mM imidazole, 5% glycerol, 5 mM MgSO4, 1 mM TCEP, 25 U/ml Benzonase, and Complete Protease Inhibitor tablets (1/50 ml, Roche Diagnostics, Indianapolis, Ind.). […] The suspension was clarified by centrifugation at 136,000×g for 40 min, at 4° C. The lysate was decanted from the pellet and passed through a 5 ml NiNTA Superflow cartridge (Qiagen, Valencia, Calif.) using an AKTA Pure (GE Healthcare). Column was eluted with 10 CV linear gradient into 50 mM Tris 7.5, 150 mM NaCl, 500 mM imidazole, 5% glycerol, 1 mM TCEP. Peak fractions were pooled and loaded directly onto 5 ml GSTrap 4B column (GE Healthcare). Column was washed with 50 mM Tris 7.0, 150 mM NaCl, 5% glycerol, 1 mM DTT and eluted in 10 CV linear gradient into 50 mM Tris 8.0, 150 mM NaCl, 20 mM reduced glutathione, 5% glycerol, 1 mM DTT. Fractions identified by SDS-PAGE as containing RIPK1 were pooled and concentrated using 30 kDa MWCO spin concentrators (Amicon Ultra-15, Millipore, Billerica, Mass.) and loaded onto a HiLoad 26/600 Superdex 200 column (GE Healthcare) equilibrated in 25 mM Tris 7.5, 150 mM NaCl, 2 mM TCEP, 5% glycerol.\nProtein was aliquoted and stored at −80° C."}, "[3]": {"settings": "x marks IC50 class >200 nM, read-out: pMLKL cell activity >200 nM"}, "[4]": {"settings": "x marks IC50 class <20 nM, read-out: pMLKL cell activity <20 nM"}, "[5]": {"settings": "x marks IC50 class <20 nM, read-out: RIPK1 HTRF binding <20 nM"}, "[6]": {"settings": "x marks IC50 class 20-200 nM, read-out: pMLKL cell activity 20-200 nM"}, "[7]": {"settings": "x marks IC50 class 20-200 nM, read-out: RIPK1 HTRF binding 20-200 nM"}}, "note": "Like-named read-outs stand apart in the source and are kept apart here."}
{"molecule": "COc1ncc(-c2ccn3nc(N)nc3c2)cc1NC(=O)c1cnn(Cc2ccccc2)c1", "note": "[Example 413, N-(5-(2-amino-[1,2,4]triazolo[1,5-a]pyridin-7-yl)-2-methoxypyridin-3-yl)-1-benzyl-1H-pyrazole-4-carboxamide]", "values": [{"measurement": "IC50", "setting": "[1]; [3]", "result": "> 0.2", "unit": "µM"}]}
{"molecule": "COc1ncc(-c2ccn3nc(N)nc3c2)cc1C(=O)NCC(C)Cc1ccccc1", "note": "(centres unmarked) [Example 113, 5-{2-amino-[1,2,4]triazolo[1,5-a]pyridin-7-yl}-2-methoxy-N-(2-methyl-3-phenylpropyl)pyridine-3-carboxamide]", "values": [{"measurement": "IC50", "setting": "[1]; [4]", "result": "< 0.02", "unit": "µM"}]}
{"molecule": "(R)-2-(2-amino-[1,2,4]triazolo[1,5-a]pyridin-7-yl)-N-(1-(2-fluoro-5-(trifluoromethyl)phenyl)ethyl)-5-methylisonicotinamide [Example 396]", "values": [{"measurement": "IC50", "setting": "[2]; [5]", "result": "< 0.02", "unit": "µM"}]}
{"molecule": "Nc1nc2cc(-c3cnc(Cl)c(C(=O)Nc4cnn(Cc5ccccc5)c4)c3)ccn2n1", "note": "[Example 83, 5-{2-Amino-[1,2,4]triazolo[1,5-a]pyridin-7-yl}-N-(1-benzyl-1H-pyrazol-4-yl)-2-chloropyridine-3-carboxamide]", "values": [{"measurement": "IC50", "setting": "[1]; [4]", "result": "< 0.02", "unit": "µM"}]}
{"molecule": "COc1ncc(-c2ccn3nc(N)nc3c2)cc1C(=O)NC[C@H]1C[C@@H]1c1ccc(F)cc1", "note": "[Example 112, 5-{2-amino-[1,2,4]triazolo[1,5-a]pyridin-7-yl}-N-{[(1S,2S)-2-(4-fluorophenyl)cyclopropyl]methyl}-2-methoxypyridine-3-carboxamide]", "values": [{"measurement": "IC50", "setting": "[1]; [3]", "result": "> 0.2", "unit": "µM"}]}
{"molecule": "COc1ncc(-c2ccn3nc(N)nc3c2)cc1C(=O)NC(C)CCc1ccccc1", "note": "(centres unmarked) [Example 101, 5-{2-amino-[1,2,4]triazolo[1,5-a]pyridin-7-yl}-2-methoxy-N-(4-phenylbutan-2-yl)pyridine-3-carboxamide]", "values": [{"measurement": "IC50", "setting": "[1]; [6]", "result": "0.02 to 0.2", "unit": "µM"}]}
{"molecule": "Cc1nc(C)c(-c2ccn3nc(N)nc3c2)cc1C(=O)NCC[C@@H](O)c1ccc(Cl)cc1", "note": "[Example 178, 5-{2-amino-[1,2,4]triazolo[1,5-a]pyridin-7-yl}-N-[(3R)-3-(4-chlorophenyl)-3-hydroxypropyl]-2,6-dimethylpyridine-3-carboxamide]", "values": [{"measurement": "IC50", "setting": "[2]; [7]", "result": "0.02 to 0.2", "unit": "µM"}]}
{"molecule": "Cc1ncc(-c2ccn3nc(N)nc3c2)cc1C(=O)NCCC(C)c1ccccc1", "note": "(centres unmarked) [Example 82, 5-{2-Amino-[1,2,4]triazolo[1,5-a]pyridin-7-yl}-2-methyl-N-(3-phenylbutyl)pyridine-3-carboxamide]", "values": [{"measurement": "IC50", "setting": "[2]; [5]", "result": "< 0.02", "unit": "µM"}]}
{"molecule": "COc1ncc(-c2ccn3nc(N)nc3c2)cc1C(=O)NCC[C@H](O)c1ccc(Cl)cc1", "note": "[Example 157, 5-{2-amino-[1,2,4]triazolo[1,5-a]pyridin-7-yl}-N-[(3S)-3-(4-chlorophenyl)-3-hydroxypropyl]-2-methoxypyridine-3-carboxamide]", "values": [{"measurement": "IC50", "setting": "[2]; [7]", "result": "0.02 to 0.2", "unit": "µM"}]}
{"molecule": "COc1ncc(-c2ccn3nc(N)nc3c2)cc1C(=O)NCCC(O)c1ccc(Cl)cn1", "note": "(centres unmarked) [Example 75, 5-{2-Amino-[1,2,4]triazolo[1,5-a]pyridin-7-yl}-N-[3-(5-chloropyridin-2-yl)-3-hydroxypropyl]-2-methoxypyridine-3-carboxamide]", "values": [{"measurement": "IC50", "setting": "[2]; x marks IC50 class >200 nM, read-out: RIPK1 HTRF binding >200 nM", "result": "> 0.2", "unit": "µM"}]}
{"molecule": "Nc1nc2cc(-c3cnc(Cl)c(C(=O)NCc4cc(C(F)(F)F)ccc4F)c3)ccn2n1", "note": "[Example 170, 5-{2-amino-[1,2,4]triazolo[1,5-a]pyridin-7-y1}-2-chloro-N-{[2-fluoro-5-(trifluoromethyl)phenyl]methyl}pyridine-3-carboxamide]", "values": [{"measurement": "IC50", "setting": "[1]; [6]", "result": "0.02 to 0.2", "unit": "µM"}]}
{"molecule": "(S)-2-(2-amino-[1,2,4]triazolo[1,5-a]pyridin-7-yl)-N-(3-(4-chlorophenyl)-3-hydroxypropyl)-5-methylisonicotinamide [Example 397]", "values": [{"measurement": "IC50", "setting": "[2]; [5]", "result": "< 0.02", "unit": "µM"}]}
{"molecule": "COc1ncc(-c2ccn3nc(N)nc3c2)cc1C(=O)NCCC(O)c1ccc(F)cc1", "note": "(single isomer, unassigned) [Example 71-2, 5-(2-Amino-[1,2,4]triazolo[1,5-a]pyridin-7-yl)-N-(3-(4-fluorophenyl)-3-hydroxypropyl)-2-methoxynicotinamide]", "values": [{"measurement": "IC50", "setting": "[1]; [3]", "result": "> 0.2", "unit": "µM"}]}
{"molecule": "COc1ncc(-c2ccn3nc(N)nc3c2)cc1C(=O)NCCC(C)c1ccccc1", "note": "(centres unmarked) [Example 85, 5-{2-Amino-[1,2,4]triazolo[1,5-a]pyridin-7-yl}-2-methoxy-N-(3-phenylbutyl)pyridine-3-carboxamide]", "values": [{"measurement": "IC50", "setting": "[1]; [4]", "result": "< 0.02", "unit": "µM"}]}
{"molecule": "Cc1nc(C)c(-c2ccn3nc(N)nc3c2)cc1C(=O)NCc1cc(F)cc(F)c1O[C@H]1CCOC1", "note": "[Example 295, (S)-5-(2-amino-[1,2,4]triazolo[1,5-a]pyridin-7-yl)-N-(3,5-difluoro-2-((tetrahydrofuran-3-yl)oxy)benzyl)-2,6-dimethylnicotinamide]", "values": [{"measurement": "IC50", "setting": "[1]; [6]", "result": "0.02 to 0.2", "unit": "µM"}]}
{"molecule": "Cc1nc(C)c(-c2ccn3nc(N)nc3c2)cc1C(=O)NCC[C@H](O)c1ccc(Cl)cc1", "note": "[Example 179, 5-{2-amino-[1,2,4]triazolo[1,5-a]pyridin-7-yl}-N-[(3S)-3-(4-chlorophenyl)-3-hydroxypropyl]-2,6-dimethylpyridine-3-carboxamide]", "values": [{"measurement": "IC50", "setting": "[2]; [5]", "result": "< 0.02", "unit": "µM"}]}
{"molecule": "5-(2-amino-[1,2,4]triazolo[1,5-a]pyridin-7-yl)-N-(3,5-difluoro-2-isobutoxybenzyl)-2-methoxynicotinamide [Example 341]", "values": [{"measurement": "IC50", "setting": "[2]; [5]", "result": "< 0.02", "unit": "µM"}]}
{"molecule": "Cc1ncc(-c2ccn3nc(N)nc3c2)cc1C(=O)NC(C)c1cc(C(F)(F)F)ccc1F", "note": "(single isomer, unassigned) [Example 99-2, 5-{2-amino-[1,2,4]triazolo[1,5-a]pyridin-7-yl}-N-{1-[2-fluoro-5-(trifluoromethyl)phenyl]ethyl}-2-methylpyridine-3-carboxamide]", "values": [{"measurement": "IC50", "setting": "[2]; [5]", "result": "< 0.02", "unit": "µM"}]}
{"molecule": "COc1nc(C)c(-c2ccn3nc(N)nc3c2)cc1C(=O)NCC[C@H](O)c1ccc(Cl)cc1", "note": "[Example 193, 5-{2-amino-[1,2,4]triazolo[1,5-a]pyridin-7-yl}-N-[(3S)-3-(4-chlorophenyl)-3-hydroxypropyl]-2-methoxy-6-methylpyridine-3-carboxamide]", "values": [{"measurement": "IC50", "setting": "[2]; [7]", "result": "0.02 to 0.2", "unit": "µM"}]}
{"molecule": "[2H]C([2H])([2H])Oc1nc(C)c(-c2ccn3nc(N)nc3c2)cc1C(=O)NC(C)c1cc(OC(F)(F)F)ccc1F", "note": "(single isomer, unassigned) [Example 97-2, 5-{2-amino-[1,2,4]triazolo[1,5-a]pyridin-7-yl}-N-{1-[2-fluoro-5-(trifluoromethoxy)phenyl]ethyl}-2-(deutero)methoxy-6-methylpyridine-3-carboxamide]", "values": [{"measurement": "IC50", "setting": "[2]; [5]", "result": "< 0.02", "unit": "µM"}]}
{"molecule": "(R)-5-(2-amino-[1,2,4]triazolo[1,5-a]pyridin-7-yl)-N-(1-(2-fluoro-5-(trifluoromethoxy)phenyl)ethyl-2,2,2-d3)-2-methoxynicotinamide [Example 345]", "values": [{"measurement": "IC50", "setting": "[2]; [5]", "result": "< 0.02", "unit": "µM"}]}
{"molecule": "COc1ncc(-c2ccn3nc(N)nc3c2)cc1C(=O)NC(C)c1cc(OC(F)(F)F)ccc1F", "note": "(single isomer, unassigned) [Example 89-2, 5-{2-amino-[1,2,4]triazolo[1,5-a]pyridin-7-yl}-N-{1-[2-fluoro-5-(trifluoromethoxy)phenyl]ethyl}-2-methoxypyridine-3-carboxamide]", "values": [{"measurement": "IC50", "setting": "[2]; [5]", "result": "< 0.02", "unit": "µM"}]}
{"molecule": "5-(2-amino-[1,2,4]triazolo[1,5-a]pyridin-7-yl)-2-methoxy-N-(2-(pyrrolidine-1-carbonyl)benzyl)nicotinamide [Example 379]", "values": [{"measurement": "IC50", "setting": "[2]; [5]", "result": "< 0.02", "unit": "µM"}]}
